From ChEMBL document CHEMBL4304757, “Synthetic heterocyclic candidates as promising α-glucosidase inhibitors: An overview” (Eur J Med Chem, 2019)

Key:
[1] = target: T1, Alpha glucosidase (Homo sapiens, UniProt O43451+P10253+P14410+Q2M2H8); assay: Inhibition of alpha-glucosidase (unknown origin) using p-nitrophenyl-alpha-d-glucopyranoside as substrate preincubated for 5 mins followed by substrate addition measured after 5 mins; format: protein assay
[2] = target: T1, Alpha glucosidase; assay: Inhibition of alpha-glucosidase (unknown origin) using p-nitrophenyl-alpha-d-glucopyranoside as substrate preincubated for 15 mins followed by substrate addition measured after 30 mins by spectrophotometric analysis; format: protein assay
[3] = Inhibition of yeast alpha-glucosidase using p-nitrophenyl-alpha-d-glucopyranoside as substrate preincubated for 10 mins followed by substrate addition measured after 30 mins; set-up: species or system Saccharomyces cerevisiae

Cc1cccc(/C=N/NC(=O)c2cc3ccccc3oc2=O)c1
IC50 [1]: 1.1 to 36 µM

Nc1nnc(-c2ccc(O)cc2)s1
IC50 [1]: 2.3 µM

O=C(N/N=C/c1ccccc1O)c1cc2ccccc2oc1=O
IC50 [1]: 1.1 to 36 µM

COc1cc(-c2nnc(/N=C/c3ccc(O)cc3)s2)ccc1OCc1ccccc1
IC50 [1]: 2.3 to 25 µM

O=[N+]([O-])c1ccccc1/C=N/c1nnc(-c2ccc(Cl)cc2)s1
IC50 [1]: 2.3 to 25 µM

COc1ccc(Br)cc1/C=N/c1nnc(-c2cccc([N+](=O)[O-])c2)s1
IC50 [1]: 2.3 to 25 µM

Nc1nnc(-c2ccc(Cl)c(OCc3ccccc3)c2)s1
IC50 [1]: 2.3 to 38 µM

Fc1cccc(Cn2cc(CSc3nc4cc(Cl)ccc4s3)nn2)c1
IC50 [2]: 20 to 61 µM

Clc1ccc2sc(SCc3cn(Cc4ccccc4Br)nn3)nc2c1
IC50 [2]: 20 to 61 µM

Brc1ccccc1Cn1cc(CSc2nc3ccccc3s2)nn1
IC50 [2]: 20 to 61 µM

O=C(COc1ccc2ccc(=O)oc2c1)N/N=C1\C(=O)N(Cc2ccccc2F)c2ccc(Cl)cc21
IC50 [2]: 2.5 µM

Brc1ccc(Cn2cc(CSc3nc4ccccc4s3)nn2)cc1
IC50 [2]: 20 to 61 µM

Clc1ccc2sc(SCc3cn(Cc4ccc(Br)cc4)nn3)nc2c1
IC50 [2]: 20 to 61 µM

O=C(N/N=C/c1ccccc1F)c1cc2ccccc2oc1=O
IC50 [1]: 1.1 to 36 µM

Cc1ccc(-c2cc(-c3cccc(Br)c3)nc(SCc3ccc(F)cc3)n2)cc1
IC50 [2]: 19 to 38 µM

Fc1ccccc1Cn1cc(CSc2nc3cc(Cl)ccc3s2)nn1
IC50 [2]: 20 to 61 µM

Nc1nnc(-c2ccc([N+](=O)[O-])cc2)s1
IC50 [1]: 2.3 to 38 µM

O=C(N/N=C/c1ccc(F)cc1)c1cc2ccccc2oc1=O
IC50 [1]: 1.1 to 36 µM

Fc1ccc(Cn2cc(CSc3nc4cc(Cl)ccc4s3)nn2)cc1
IC50 [2]: 20 to 61 µM

O=C(N/N=C/c1ccccn1)c1cc2ccccc2oc1=O
IC50 [1]: 1.1 to 36 µM

Cc1ccc(/C=N/NC(=O)c2cc3ccccc3oc2=O)cc1
IC50 [1]: 1.1 to 36 µM

Nc1nnc(-c2ccccc2[N+](=O)[O-])s1
IC50 [1]: 2.3 to 38 µM

COc1ccc(O)c(/C=N/NC(=O)c2cc3ccccc3oc2=O)c1
IC50 [1]: 1.1 to 36 µM

COc1ccc(Br)cc1-c1nnc(N)s1
IC50 [1]: 2.3 to 38 µM

COc1ccc(/C=N/NC(=O)c2cc3ccccc3oc2=O)c(O)c1
IC50 [1]: 1.1 to 36 µM

Fc1ccccc1CSc1nc(-c2ccc(Br)cc2)cc(-c2ccc(Br)cc2)n1
IC50 [2]: 19 to 38 µM

CN(C)c1ccc(-c2nnc(N)s2)cc1
IC50 [1]: 2.3 to 38 µM

O=C(N/N=C/c1cccc(F)c1)c1cc2ccccc2oc1=O
IC50 [1]: 1.1 to 36 µM

Cc1ccc(-n2c(-c3cn(-c4ccccc4)nc3-c3cc4cc(Br)ccc4oc3=O)nc(-c3ccccc3)c2-c2ccccc2)cc1
IC50 [3]: 2.5 to 46 µM

Clc1ccccc1CSc1nc(-c2ccc(Br)cc2)cc(-c2ccc(Br)cc2)n1
IC50 [2]: 19 to 38 µM

Cc1cc2nc(-c3ccc(C(=O)N/N=C/c4ccc(O)c(Br)c4)cc3)[nH]c2cc1C
IC50 [3]: 8.4 to 179 µM

Cc1cc2nc(-c3ccc(C(=O)N/N=C/c4cccc(Cl)c4)cc3)[nH]c2cc1C
IC50 [3]: 8.4 to 179 µM

Cc1cc2nc(-c3ccc(C(=O)N/N=C/c4cccc(O)c4)cc3)[nH]c2cc1C
IC50 [3]: 8.4 to 179 µM

Nc1nnc(-c2c3ccccc3cc3ccccc23)s1
IC50 [1]: 2.3 to 38 µM

Cc1cc2nc(-c3ccc(C(=O)N/N=C/c4cccc(F)c4)cc3)[nH]c2cc1C
IC50 [3]: 8.4 to 179 µM

Nc1nnc(-c2cc3ccccc3cc2O)s1
IC50 [1]: 2.3 to 38 µM

Cc1ccccc1/C=N/NC(=O)c1cc2ccccc2oc1=O
IC50 [1]: 1.1 to 36 µM

COc1ccc(-n2c(-c3cn(-c4ccccc4)nc3-c3cc4cc(Br)ccc4oc3=O)nc(-c3ccccc3)c2-c2ccccc2)cc1
IC50 [3]: 2.5 to 46 µM

O=c1oc2ccc(Br)cc2cc1-c1nn(-c2ccccc2)cc1-c1nc(-c2ccccc2)c(-c2ccccc2)[nH]1
IC50 [3]: 2.7 to 23 µM

O=[N+]([O-])c1ccc(-n2cc(-c3nc(-c4ccccc4)c(-c4ccccc4)[nH]3)c(-c3ccccc3)n2)cc1
IC50 [3]: 2.7 to 23 µM

Nc1nnc(-c2cccc([N+](=O)[O-])c2)s1
IC50 [1]: 2.3 to 38 µM

Cc1cc2nc(-c3ccc(C(=O)N/N=C/c4cc(O)ccc4O)cc3)[nH]c2cc1C
IC50 [3]: 8.4 to 9.9 µM

Cc1cc2nc(-c3ccc(C(=O)NNC(=S)Nc4ccccc4F)cc3)[nH]c2cc1C
IC50 [3]: 35 to 297 µM

Cc1cc(C)cc(-n2c(-c3cn(-c4ccccc4)nc3-c3cc4ccccc4oc3=O)nc(-c3ccccc3)c2-c2ccccc2)c1
IC50 [3]: 2.5 to 46 µM

O=[N+]([O-])c1cccc(-c2nnc(/N=C/c3ccc(Cl)cc3Cl)s2)c1
IC50 [1]: 2.3 to 25 µM

Cc1cc2nc(-c3ccc(C(=O)NNC(=S)Nc4ccccc4Br)cc3)[nH]c2cc1C
IC50 [3]: 35 to 297 µM

O=C(N/N=C/c1ccccc1)c1cc2ccccc2oc1=O
IC50 [1]: 1.1 to 36 µM

COc1ccc(/C=N/NC(=O)c2cc3ccccc3oc2=O)cc1
IC50 [1]: 1.1 to 36 µM

O=C(N/N=C/c1ccncc1)c1cc2ccccc2oc1=O
IC50 [1]: 1.1 to 36 µM

Cc1cccc(/C=N/NC(=O)c2ccc(-c3nc4cc(C)c(C)cc4[nH]3)cc2)c1
IC50 [3]: 8.4 to 179 µM

Cc1nn(-c2ccc(Nc3cccc(Cl)c3)nn2)c(C)c1[N+](=O)[O-]
IC50 [3]: 19 µM

Cc1cc2nc(-c3ccc(C(=O)N/N=C/c4cccc(O)c4O)cc3)[nH]c2cc1C
IC50 [3]: 8.4 to 9.9 µM

Cc1ccc(-c2cc(-c3ccc(Br)cc3)nc(SCc3ccccc3Br)n2)cc1
IC50 [2]: 19 to 38 µM

Clc1ccc(-c2nn(-c3ccccc3)cc2-c2nc(-c3ccccc3)c(-c3ccccc3)[nH]2)cc1
IC50 [3]: 2.7 to 23 µM

COc1ccc(-c2nn(-c3ccccc3)cc2-c2nc(-c3ccccc3)c(-c3ccccc3)[nH]2)cc1
IC50 [3]: 2.7 to 23 µM

Cc1cc2nc(-c3ccc(C(=O)N/N=C/c4ccc([N+](=O)[O-])cc4)cc3)[nH]c2cc1C
IC50 [3]: 8.4 to 179 µM

COc1ccc(-n2c(-c3cn(-c4ccccc4)nc3-c3cc4ccccc4oc3=O)nc(-c3ccccc3)c2-c2ccccc2)cc1
IC50 [3]: 2.5 to 46 µM

Nc1nnc(-c2ccc(OCc3ccccc3)cc2)s1
IC50 [1]: 2.3 to 38 µM

Cc1cc2nc(-c3ccc(C(=O)N/N=C/c4cc(O)c(O)c(O)c4)cc3)[nH]c2cc1C
IC50 [3]: 8.4 µM

Cc1cc2nc(-c3ccc(C(=O)NNC(=S)Nc4ccc(F)cc4)cc3)[nH]c2cc1C
IC50 [3]: 35 to 297 µM

Cc1cc2nc(-c3ccc(C(=O)NNC(=S)Nc4cccc(F)c4)cc3)[nH]c2cc1C
IC50 [3]: 35 to 297 µM

Fc1cccc(CSc2nc(-c3ccc(Br)cc3)cc(-c3cccc(Br)c3)n2)c1
IC50 [2]: 19 to 38 µM

Clc1ccc(Cn2cc(CSc3nc4ccccc4s3)nn2)cc1
IC50 [2]: 20 to 61 µM

Cc1cc2nc(-c3ccc(C(=O)N/N=C/c4ccccn4)cc3)[nH]c2cc1C
IC50 [3]: 8.4 to 179 µM

O=[N+]([O-])c1ccc(/C=N/c2nnc(-c3ccc(Cl)cc3)s2)cc1
IC50 [1]: 2.3 to 25 µM

CC(C)(C)c1ccc(Cn2cc(CSc3nc4cc(Cl)ccc4s3)nn2)cc1
IC50 [2]: 20 µM

Cc1cc2nc(-c3ccc(C(=O)N/N=C/c4ccc(O)cc4O)cc3)[nH]c2cc1C
IC50 [3]: 8.4 to 9.9 µM

Clc1ccc(-c2nnc(/N=C/c3ccc(OCc4ccccc4)cc3)s2)cc1
IC50 [1]: 2.3 to 25 µM

O=C(N/N=C/c1ccc(O)cc1O)c1cc2ccccc2oc1=O
IC50 [1]: 1.1 to 36 µM

Cc1cc2nc(-c3ccc(C(=O)N/N=C/c4ccccc4O)cc3)[nH]c2cc1C
IC50 [3]: 8.4 to 179 µM

Cc1cc2nc(-c3ccc(C(=O)N/N=C/c4ccc(O)cc4)cc3)[nH]c2cc1C
IC50 [3]: 8.4 to 179 µM

Cc1ccc(-c2cc(-c3cccc(Br)c3)nc(SCc3cccc(F)c3)n2)cc1
IC50 [2]: 19 to 38 µM

Clc1ccccc1CSc1nc(-c2ccc(Br)cc2)cc(-c2cccc(Br)c2)n1
IC50 [2]: 19 to 38 µM

CC(C)(C)c1ccc(Cn2cc(CSc3nc4ccccc4s3)nn2)cc1
IC50 [2]: 20 to 61 µM

Cc1ccc(-c2cc(-c3cccc(Br)c3)nc(SCc3ccccc3Cl)n2)cc1
IC50 [2]: 19 to 38 µM

Clc1ccc(CSc2nc(-c3ccc(Br)cc3)cc(-c3ccc(Br)cc3)n2)cc1
IC50 [2]: 19 to 38 µM

Cc1cc2nc(-c3ccc(C(=O)N/N=C/c4ccc(Cl)cc4)cc3)[nH]c2cc1C
IC50 [3]: 8.4 to 179 µM

Brc1ccc(-c2nn(-c3ccccc3)cc2-c2nc(-c3ccccc3)c(-c3ccccc3)[nH]2)cc1
IC50 [3]: 2.7 to 23 µM

COc1ccc(Br)cc1/C=N/c1nnc(-c2ccc(Cl)cc2)s1
IC50 [1]: 2.3 to 25 µM

O=[N+]([O-])c1ccc(-c2nn(-c3ccccc3)cc2-c2nc(-c3ccccc3)c(-c3ccccc3)[nH]2)cc1
IC50 [3]: 2.7 to 23 µM

O=C(N/N=C/c1ccccc1[N+](=O)[O-])c1cc2ccccc2oc1=O
IC50 [1]: 1.1 to 36 µM

Clc1ccc2sc(SCc3cn(Cc4ccccc4Cl)nn3)nc2c1
IC50 [2]: 20 to 61 µM

Cc1cc2nc(-c3ccc(C(=O)N/N=C/c4cccnc4)cc3)[nH]c2cc1C
IC50 [3]: 8.4 to 179 µM

O=c1oc2ccc(Br)cc2cc1-c1nn(-c2ccccc2)cc1-c1nc(-c2ccccc2)c(-c2ccccc2)n1-c1ccc(Cl)cc1
IC50 [3]: 2.5 µM

O=C(N/N=C/c1cccc(O)c1O)c1cc2ccccc2oc1=O
IC50 [1]: 1.1 µM

Clc1cc(Cl)cc(Cn2cc(CSc3nc4ccccc4s3)nn2)c1
IC50 [2]: 20 to 61 µM

Nc1nnc(-c2ccc(Cl)cc2Cl)s1
IC50 [1]: 2.3 to 38 µM

Nc1nnc(-c2ccc(Cl)cc2)s1
IC50 [1]: 2.3 to 38 µM

Fc1cccc(Cn2cc(CSc3nc4ccccc4s3)nn2)c1
IC50 [2]: 20 to 61 µM

COc1cccc(-c2nnc(N)s2)c1OC
IC50 [1]: 2.3 to 38 µM

Fc1ccc(CSc2nc(-c3ccc(Br)cc3)cc(-c3ccc(Br)cc3)n2)cc1
IC50 [2]: 19 to 38 µM

Clc1ccc2sc(SCc3cn(Cc4ccccc4)nn3)nc2c1
IC50 [2]: 20 to 61 µM

O=c1oc2ccccc2cc1-c1nn(-c2ccccc2)cc1-c1nc(-c2ccccc2)c(-c2ccccc2)n1-c1ccc(Cl)cc1
IC50 [3]: 2.5 to 46 µM

CCCn1c(-c2cn(-c3ccccc3)nc2-c2cc3ccccc3oc2=O)nc(-c2ccccc2)c1-c1ccccc1
IC50 [3]: 2.5 to 46 µM

O=C(N/N=C/c1ccc([N+](=O)[O-])cc1)c1cc2ccccc2oc1=O
IC50 [1]: 1.1 to 36 µM

Cc1cc2nc(-c3ccc(C(=O)NNC(=S)Nc4ccc(Cl)cc4)cc3)[nH]c2cc1C
IC50 [3]: 35 to 297 µM

Cc1cc2nc(-c3ccc(C(=O)N/N=C/c4ccccc4C)cc3)[nH]c2cc1C
IC50 [3]: 8.4 to 179 µM

Clc1ccc(-c2nnc(/N=C/c3ccc(Cl)cc3Cl)s2)cc1
IC50 [1]: 2.3 to 25 µM

Cc1cc2nc(-c3ccc(C(=O)NNC(=S)Nc4ccc(C(F)(F)F)cc4)cc3)[nH]c2cc1C
IC50 [3]: 35 to 297 µM

COc1ccc(/C=N/NC(=O)c2ccc(-c3nc4cc(C)c(C)cc4[nH]3)cc2)cc1O
IC50 [3]: 8.4 to 179 µM

Oc1ccc(/C=N/c2nnc(-c3ccc(Cl)cc3)s2)cc1
IC50 [1]: 2.3 µM

O=c1oc2ccccc2cc1-c1nn(-c2ccccc2)cc1-c1nc(-c2ccccc2)c(-c2ccccc2)[nH]1
IC50 [3]: 2.7 µM

O=c1oc2ccc(Br)cc2cc1-c1nn(-c2ccccc2)cc1-c1nc(-c2ccccc2)c(-c2ccccc2)n1-c1ccc(Br)cc1
IC50 [3]: 2.5 to 46 µM
